# Assays:
# Fusarium sambucinum = assay: in vivo volatile assay on potato slices; details: 10 mg/L, 21° C. for 3 days
# Experimental: (§1) To test the effect of Compound A (FIG. 1) on vegetables, potato, onion and squash were obtained from a local store, and the surface sterilized with 0.825% sodium hypochlorite (NaOCl). A slice of potato or two leaves of onion were placed in a sterile Petri plate, while whole squash were placed in a sterile 10.8-cup SnapWare airtight container (Model #109842). Each slice of potato was inoculated with 20 μL of a 1×10^5 spores/mL Fusarium sambucinum suspension, while onions were inoculated with 20 μL of a 1×10^6 spores/mL Botrytis cinerea suspension. For inoculation of squash, a small core was removed, and a mycelial plug of Phytophthora capsici was inserted and capped with the core. Compound A was diluted in acetone, and added to a 42.5 mm Whatman #1 filter disk (Cat. No. 1001-042) attached to the inner side of the lid at a rate to achieve a final headspace concentration of 10 mg/L. The acetone was permitted to evaporate for 5 minutes before parafilm sealing the plates or closing the airtight containers. The vegetables were incubated at 21° C. for 3 days, and evaluated for mycelial growth, dry rot, and water-soaked appearance (mm diameter) with results summarized in Table 13.
# Penicillium expansum = assay: in vivo volatile bioassay using apple; details: 50 mg/L; for Sporulation (mm) / Rot (mm): apples
# Experimental: In order to assess the in vivo activity of volatile antimicrobial Compound A in fruit, a volatile bioassay is developed using apple. Two apples are placed inside a PET clamshell. Three fresh wounds per apple are inoculated with 30 μL of 1×10^6 per mL Penicillium expansum spore suspension. The clamshells are placed inside a 10.8-cup SnapWare airtight container (Model #109842). A 42.5 mm Whatman #1 filter disk (Cat. No. 1001-042) is placed on a watch glass. Compound A is dissolved in acetone and added to the disks in a manner to produce a final headspace concentration of 50 mg/L. The acetone is permitted to evaporate for five minutes. The containers are then closed with the lids, and placed for three days at 21° C. After storage, fruits are evaluated for disease incidence (mm diameter of the rot) and pathogen sporulation (mm diameter) on the surface of the fruits for an additional three days at 21° C., with results summarized in Table 19.
# [1] = system: Pectobacterium carotovorum; assay: in vivo volatile assay on potato, onion and carrot cubes; details: 50 mg/L; for Log CFU/mL: 10 C for four days
# Experimental: To test the effect of Compound A at controlling bacterial pathogens of vegetables, potato, onion and carrot are chopped into small cubes and surface sterilized with 0.825% NaOCl and allowed to dry. Four small cubes (approximately […]) of each vegetable are placed in a sterile Petri plate. Each cube is inoculated with 25 μL of Pectobacterium carotovorum (bacterial concentration of OD 1.0, 600 nm). […] No. 1001-042) attached to the inner side of the lid. The acetone is permitted to evaporate for five minutes before closing the plate and sealing it with parafilm. The vegetables are incubated at 10 C for four days.
# Botrytis cinerea [2] = assay: in vivo volatile bioassay using strawberry
# Experimental: In order to assess the in vivo activity of volatile antimicrobial compounds, a volatile bioassay is developed using strawberry. Two fruit are placed inside a 240 mL jar, with the calyx facing downwards. […] The acetone is permitted to evaporate for 5 minutes. The jars are then capped with the lids containing the fungicide, and placed for 5 days at 21° C. After storage, fruit are evaluated for incidence and severity of disease and appearance of phytotoxicity.
# Botrytis cinerea [3] = assay: in vivo volatile assay on onion leaves; details: 10 mg/L, 21° C. for 3 days
# Experimental: as §1
structure (smiles),measurement,setting,value
OB1OCc2cc(F)ccc21 [Compound A],Dry rot,Fusarium sambucinum,0 mm
same,Mycelial growth,Fusarium sambucinum,0 mm
same,in vivo volatile antimicrobial control of P. expansum mold of apple,Penicillium expansum; up to 3 days after treatment,100%
same,Sporulation (mm),Penicillium expansum; Day 0,0 mm
same,Rot (mm),Penicillium expansum; Day 1,0 mm
same,Sporulation (mm),Penicillium expansum; Day 1,0 mm
same,Rot (mm),Penicillium expansum; Day 2,0 mm
same,Sporulation (mm),Penicillium expansum; Day 2,0 mm
same,Rot (mm),Penicillium expansum; Day 3,0 mm
same,Sporulation (mm),Penicillium expansum; Day 3,0 mm
same,Log reduction,[1]; Carrot,0.29 log
same,Log CFU/mL,[1]; Carrot,6.06 Log CFU/mL
same,Log reduction,[1]; Onion,2.14 log
same,Log CFU/mL,[1]; Onion,5.99 Log CFU/mL
same,Log reduction,[1]; Potato,0.84 log
same,Log CFU/mL,[1]; Potato,6.63 Log CFU/mL
same,Percent (%) Incidence of Botrytis cinerea on Strawberry (in vivo),"Botrytis cinerea [2]; 0.005 mg/disk, 5 days at 21° C.",75%
same,Percent (%) Incidence of Botrytis cinerea on Strawberry (in vivo),"Botrytis cinerea [2]; 0.01 mg/disk, 5 days at 21° C.",100%
same,Percent (%) Incidence of Botrytis cinerea on Strawberry (in vivo),"Botrytis cinerea [2]; 0.02 mg/disk, 5 days at 21° C.",50%
same,Percent (%) Incidence of Botrytis cinerea on Strawberry (in vivo),"Botrytis cinerea [2]; 0.04 mg/disk, 5 days at 21° C.",75%
same,Percent (%) Incidence of Botrytis cinerea on Strawberry (in vivo),"Botrytis cinerea [2]; 0.08 mg/disk, 5 days at 21° C.",0%
same,Percent (%) Incidence of Botrytis cinerea on Strawberry (in vivo),"Botrytis cinerea [2]; 0.16 mg/disk, 5 days at 21° C.",0%
same,Percent (%) Incidence of Botrytis cinerea on Strawberry (in vivo),"Botrytis cinerea [2]; 0.32 mg/disk, 5 days at 21° C.",0%
same,Percent (%) Incidence of Botrytis cinerea on Strawberry (in vivo),"Botrytis cinerea [2]; 0.64 mg/disk, 5 days at 21° C.",0%
same,Percent (%) Incidence of Botrytis cinerea on Strawberry (in vivo),"Botrytis cinerea [2]; 1.25 mg/disk, 5 days at 21° C.",0%
same,Percent (%) Incidence of Botrytis cinerea on Strawberry (in vivo),"Botrytis cinerea [2]; 2.5 mg/disk, 5 days at 21° C.",0%
same,lowest rate with 100% control of Botrytis cinerea,"Botrytis cinerea [2]; strawberry, 5 days at 21° C.",0.16 mg/disk
same,appearance of phytotoxicity,"Botrytis cinerea [2]; strawberry, any of the rates evaluated (2.5 to 0.005 mg/disk)",no evidence of phytotoxicity
same,Water soaked,Botrytis cinerea [3],0 mm

# Reference: patent US9426996B2, “Use of benzoxaboroles as volatile antimicrobial agents on meats, plants, or plant parts” (AgroFresh Inc., priority 2013, dated 2016)
